This is an account of results in PubChem BioAssay (NCI).

Molecules are shown by their SMILES.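 Test compounds were applied to cells in 96-well plates for 48 hours at 5 doses. GI50 = concentration required for 50% inhibition of growth. TGI marks complete inhibition of growth.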

Test systems include A549 NSCLC; CAKI-1 renal; DU-145 prostate; HCC-2998 colon; K-562 leukemia; NCI-H522 lung; RPMI-8226 leukemia; SW-620 colon; UACC-62 melanoma; KM12 colon.
Common to all, as to assay: growth of human tumour cells (NCI), 48 h

`O=S(=O)(c1ccc(NC(=S)NCc2cccnc2)cc1)N1CCCCC1`: the GI50 in the assay with A549 NSCLC is 11000 nM; in the assay on CAKI-1 renal, 20400 nM; in the assay with DU-145 prostate, 6120 nM; in the assay on HCC-2998 colon, over 100000 nM; in the assay with K-562 leukemia, 1380 nM; with NCI-H522 lung, 10100 nM. Moreover, the figures for the GI50 with RPMI-8226 leukemia, in the assay on SW-620 colon and with UACC-62 melanoma were 2170 nM, 579 nM and 23400 nM, respectively. Also, the TGI with A549 NSCLC, in the assay with CAKI-1 renal, in the assay on DU-145 prostate, with HCC-2998 colon, in the assay on K-562 leukemia and with NCI-H522 lung was over 100000 nM in each case. In addition, the TGI with RPMI-8226 leukemia, in the assay on SW-620 colon and in the assay with UACC-62 melanoma was over 100000 nM each time.
In the case of `Cn1c(=O)c2[nH]c(/N=N/N3CCN(CCO)CC3)nc2n(C)c1=O`, the TGI with A549 NSCLC, with CAKI-1 renal, in the assay on DU-145 prostate, in the assay on K-562 leukemia, in the assay on KM12 colon and with NCI-H522 lung was over 100000 nM throughout. The TGI with RPMI-8226 leukemia, with SW-620 colon and in the assay on UACC-62 melanoma was over 100000 nM each time.
Consider `Nc1ncnc2c1ccn2C1OC2COP(=O)(O)OC2C1O` (configuration not stated), for which the TGI in the assay with A549 NSCLC was 12800 nM; with DU-145 prostate, over 100000 nM; in the assay on HCC-2998 colon it was 9450 nM; in the assay on K-562 leukemia, 19000 nM; in the assay on KM12 colon it was 16500 nM; in the assay on NCI-H522 lung, 1070 nM. In addition, the TGI with RPMI-8226 leukemia is over 100000 nM; in the assay on SW-620 colon it was over 44500 nM; with UACC-62 melanoma, 1450 nM.
Regarding `COc1cc2cc(Oc3ccc(NC(=O)Nc4ccc(Cl)c(C(F)(F)F)c4)cc3)c(C)nc2cc1OCCN1CCCCC1`, the GI50 in the assay on CAKI-1 renal was 1310 nM; with DU-145 prostate it was 1530 nM; in the assay with HCC-2998 colon, 1850 nM; in the assay on K-562 leukemia, 547 nM; with KM12 colon it was 1640 nM; with NCI-H522 lung, 1590 nM. The GI50 in the assay with SW-620 colon is 1900 nM; with UACC-62 melanoma, 1690 nM. In addition, the TGI came to 2640 nM in the assay with CAKI-1 renal; 2870 nM in the assay with DU-145 prostate; 3460 nM with HCC-2998 colon; 2330 nM in the assay on K-562 leukemia; 3090 nM in the assay on KM12 colon; 3260 nM with NCI-H522 lung. Moreover, the TGI was 3480 nM in the assay with SW-620 colon and 3080 nM with UACC-62 melanoma.
Turning to `O=C(CCN1CCCC1)Nc1ccc2c(NCc3ccc(F)cc3)c3ccccc3nc2c1`, the GI50 in the assay with A549 NSCLC is 384 nM; with CAKI-1 renal, 1420 nM; with DU-145 prostate, 368 nM; in the assay on HCC-2998 colon, 485 nM; with KM12 colon it was 431 nM; in the assay on NCI-H522 lung, 394 nM. Also, the GI50 was 353 nM in the assay on SW-620 colon and 827 nM with UACC-62 melanoma. Also, the TGI with A549 NSCLC amounted to 1790 nM; in the assay on CAKI-1 renal, 5420 nM; with DU-145 prostate, 1540 nM; with HCC-2998 colon it was 2030 nM; with KM12 colon it was 1620 nM; in the assay on NCI-H522 lung, 1750 nM. For the same molecule, the TGI in the assay on SW-620 colon stood at 1530 nM; with UACC-62 melanoma it was 2160 nM.
On to `CN(C)CCNC(=O)c1cccn2c(=O)c3cc4ccccc4cc3nc12`, for which the GI50 in the assay on CAKI-1 renal was 71.1 nM; in the assay on DU-145 prostate, 103 nM; with HCC-2998 colon, 241 nM; in the assay with K-562 leukemia, 208 nM; in the assay with KM12 colon it was 161 nM; in the assay on NCI-H522 lung, 182 nM. The GI50 is 240 nM with RPMI-8226 leukemia, 51.5 nM in the assay with SW-620 colon and 194 nM in the assay on UACC-62 melanoma. The TGI with CAKI-1 renal is 593 nM; with DU-145 prostate, 391 nM; in the assay on HCC-2998 colon, 1060 nM; with K-562 leukemia, 40800 nM; with KM12 colon it was 1410 nM; in the assay with NCI-H522 lung it was 856 nM. The TGI in the assay on SW-620 colon was found to be 2080 nM; with UACC-62 melanoma, 1370 nM.
On to `CC(C)(O)c1ccc(N2CCN(c3nnc(Cc4ccccc4)c4ccccc34)CC2)nc1`, for which the GI50 in the assay with A549 NSCLC is 6980 nM; in the assay with CAKI-1 renal, 11300 nM; in the assay on DU-145 prostate, 12100 nM; with HCC-2998 colon it was 14000 nM; in the assay on K-562 leukemia, 4810 nM; in the assay on KM12 colon it was 13200 nM. Further, the results for the GI50 in the assay with NCI-H522 lung, in the assay on SW-620 colon and in the assay with UACC-62 melanoma were 6320 nM, 17100 nM and 8440 nM, respectively. The TGI in the assay on A549 NSCLC was 25100 nM; with CAKI-1 renal it was 30900 nM; with DU-145 prostate, 34800 nM; with HCC-2998 colon, 27800 nM; in the assay with K-562 leukemia it was over 72900 nM; in the assay on KM12 colon, 29500 nM. Further, the TGI was determined as 20700 nM in the assay with NCI-H522 lung, 38500 nM with SW-620 colon and 21900 nM in the assay with UACC-62 melanoma.
Consider `CN(C)c1ccc2nc3ccc(=[N+](C)C)cc-3oc2c1`, for which the GI50 in the assay with A549 NSCLC is 2910 nM; in the assay with CAKI-1 renal, 5920 nM; in the assay on DU-145 prostate, 5710 nM; with HCC-2998 colon, 3560 nM; in the assay on K-562 leukemia it was 1580 nM; with KM12 colon, 1180 nM. Also, the GI50 with RPMI-8226 leukemia is 684 nM; in the assay on SW-620 colon, 1740 nM; in the assay on UACC-62 melanoma, 2320 nM. Besides, the TGI in the assay on A549 NSCLC is 84100 nM; with CAKI-1 renal it was 57600 nM; in the assay with DU-145 prostate, 49400 nM; with HCC-2998 colon, over 100000 nM; in the assay with K-562 leukemia, 71900 nM; in the assay with KM12 colon, over 100000 nM. For the same molecule, the TGI is 21000 nM in the assay with RPMI-8226 leukemia, over 100000 nM in the assay on SW-620 colon and 19200 nM with UACC-62 melanoma.
In the case of `CCN=C1C=CC(=C(c2ccc(N(C)C)cc2)c2ccc(N(C)C)cc2)c2ccccc21`, the GI50 with A549 NSCLC was 31.2 nM; in the assay with CAKI-1 renal, 200 nM; in the assay with DU-145 prostate, 82.9 nM; with HCC-2998 colon, 137 nM; in the assay with K-562 leukemia, 55.7 nM; with KM12 colon, 38.3 nM. Further, the figures for the GI50 with RPMI-8226 leukemia and in the assay on SW-620 colon were 16.5 nM and 113 nM, respectively. Besides, the TGI in the assay with A549 NSCLC stood at 176 nM; in the assay on CAKI-1 renal, 520 nM; with DU-145 prostate, 357 nM; in the assay with HCC-2998 colon, 696 nM; in the assay with K-562 leukemia, 2170 nM; in the assay on KM12 colon it was 180 nM. In addition, the results for the TGI in the assay with RPMI-8226 leukemia and with SW-620 colon were 55.5 nM and 1110 nM, respectively.
